The target in one experiment is CDK12/CycK (Homo sapiens, UniProt Q9NYV4). As to the kind of experiment: CDK12/CycK high ATP kinase assay (TR-FRET, 2 mM ATP). The format is biochemical. The settings on record: 2 mM ATP (high ATP); median; read-out: CDK12/CyclinK, 2 mM ATP (high ATP), IC50-[mol/l] (median). The gist of the method: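 Read-out is TR-FRET (Eu-anti-rabbit IgG, anti-phospho-c-Myc Ser62 antibody, streptavidin-XL665) after EDTA stop. Reaction ran 60 min at 22 °C using 1 µM biotin-peptide and high ATP (2 mM) with roughly 0.75 nM recombinant CDK12/CycK, after 15 min compound pre-binding; normalised emission ratios yield IC50.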
(In general: In TR-FRET formats the signal depends on donor and acceptor labels being close together.)

The test system of experiment [1] is MDA-MB-231, human breast cancer cells. As to the kind of experiment: Proliferation assay MDA-MB-231 (crystal violet, 4 days). The note with it: Homo sapiens, MDA-MB-231, 96 h, MDA-MB-231 cells, median, read-out: Prolif-MDA MB-231, IC50-[mol/l] (median). The class given is cell-based. An outline of the steps:
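IC50 from a 4-parameter fit of crystal violet absorbance (595 nm), scaled between the day-of-dosing plate (0%) and vehicle cells (100%). MDA-MB-231 or CAL-120 cells were treated for 4 days with 0.01–10 micromol/L compound in 0.1% DMSO after 24 h attachment.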

The test system of experiment [2] is BRCA1 mRNA expression in MDA-MB-231 cells. As to the kind of experiment: qRT-PCR assay: BRCA1 mRNA expression in MDA-MB-231. The class given is cell-based, human. The note with it: Homo sapiens, MDA-MB-231, Inhibition of BRCA1 mRNA expression in MDA-MB-231 cells; median; read-out: RTqPCR-MDA-MB-231, IC50, BRCA1 (median). An outline of the steps: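 BRCA1 transcript by RT-qPCR relative to GAPDH, from 600 ng RNA converted to cDNA. MDA-MB-231 cells plated at 200,000/well received test compound continuously for 24 h, starting 24 h post-seeding.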
For orientation: In qPCR the cycle at which signal appears reflects the starting amount.

The structures appear in SMILES notation.

This passage reports IC50 results from patent US20230117034A1, “PYRAZOLOTRIAZINES” (Bayer Aktiengesellschaft, priority 2019, published 2023).

CDK12/CycK, sequence (Q9NYV4 with tags, fused parts or gaps): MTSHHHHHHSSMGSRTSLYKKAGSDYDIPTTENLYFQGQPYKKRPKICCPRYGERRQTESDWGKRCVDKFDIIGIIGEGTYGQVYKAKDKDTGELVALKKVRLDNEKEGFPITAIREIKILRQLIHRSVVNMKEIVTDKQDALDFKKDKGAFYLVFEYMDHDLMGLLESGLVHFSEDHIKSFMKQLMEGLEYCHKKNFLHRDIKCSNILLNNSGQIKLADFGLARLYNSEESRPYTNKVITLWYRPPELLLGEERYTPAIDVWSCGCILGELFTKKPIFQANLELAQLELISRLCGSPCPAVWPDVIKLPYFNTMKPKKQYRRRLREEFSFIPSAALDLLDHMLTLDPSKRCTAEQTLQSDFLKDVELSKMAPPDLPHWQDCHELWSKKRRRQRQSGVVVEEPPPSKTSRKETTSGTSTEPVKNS
CDK12/CycK, sequence (O75909 1-300 partner limits assumed): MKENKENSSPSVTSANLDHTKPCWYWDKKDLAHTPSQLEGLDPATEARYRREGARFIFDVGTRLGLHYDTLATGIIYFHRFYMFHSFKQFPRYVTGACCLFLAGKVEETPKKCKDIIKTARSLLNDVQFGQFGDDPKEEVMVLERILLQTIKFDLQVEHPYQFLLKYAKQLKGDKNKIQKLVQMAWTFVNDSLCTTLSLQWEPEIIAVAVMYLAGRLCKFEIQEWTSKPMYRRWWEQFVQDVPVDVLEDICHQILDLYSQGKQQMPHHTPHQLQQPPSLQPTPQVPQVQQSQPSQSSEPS

As for `CN1C2CCC1CN(c1nc(NCc3nc4c(F)cccc4[nH]3)n3ncc(C(F)(F)F)c3n1)C2` [Example 384, N-[(4-fluoro-1H-benzimidazol-2-yl)methyl]-2-(8-methyl-3,8-diazabicyclo[3.2.1]octan-3-yl)-8-(trifluoromethyl)pyrazolo[1,5-a][1,3,5]triazin-4-amine], the IC50 on CDK12/CycK is 8110 nM; in experiment [1] it was 8.48 nM; in experiment [2], 13.6 nM.

Turning to `CN(CC(C)(C)O)c1nc(NCc2nc3c(F)c(Cl)ccc3[nH]2)n2ncc(Br)c2n1` [Example 374, 1-[(8-bromo-4-{[(5-chloro-4-fluoro-1H-benzimidazol-2-yl)methyl]amino}pyrazolo[1,5-a][1,3,5]triazin-2-yl)(methyl)amino]-2-methylpropan-2-ol], the IC50 at CDK12/CycK turned out to be 155 nM; in experiment [1], 3.62 nM; in experiment [2], 2.6 nM.

`CN(c1nc(NCc2nc3ccccc3[nH]2)n2ncc(Br)c2n1)[C@H]1C[C@@H](O)C1` [Example 364, cis-3-[(4-{[(1H-benzimidazol-2-yl)methyl]amino}-8-bromopyrazolo[1,5-a][1,3,5]triazin-2-yl)(methyl)amino]cyclobutan-1-ol]: the IC50 on CDK12/CycK is 6670 nM; in experiment [1] it was 41.3 nM; in experiment [2], 9.75 nM.

As for `Fc1c(Cl)ccc2[nH]c(CNc3nc(N4CC5CCC(C4)N5)nc4c(Br)cnn34)nc12` [Example 380, 8-bromo-N-[(5-chloro-4-fluoro-1H-benzimidazol-2-yl)methyl]-2-(3,8-diazabicyclo[3.2.1]octan-3-yl)pyrazolo[1,5-a][1,3,5]triazin-4-amine], the IC50 on CDK12/CycK was 1020 nM; in experiment [1] it was 2.19 nM; in experiment [2], 1 nM.

Turning to `Cc1cc2nc(CNc3nc(N4CCOCC4)nc4c(C5CC5)cnn34)[nH]c2cc1C` [Example 320, 8-cyclopropyl-N-[(5,6-dimethyl-1H-benzimidazol-2-yl)methyl]-2-(morpholin-4-yl)pyrazolo[1,5-a][1,3,5]triazin-4-amine], the IC50 was found to be 557 nM on CDK12/CycK, 4.17 nM in experiment [1] and 3.59 nM in experiment [2].

As to `Clc1cc2nc(CNc3nc(N4CC5CCC(C4)N5)nc4c(Br)cnn34)[nH]c2cc1Cl` [Example 334, 8-bromo-2-(3,8-diazabicyclo[3.2.1]octan-3-yl)-N-[(5,6-dichloro-1H-benzimidazol-2-yl)methyl]pyrazolo[1,5-a][1,3,5]triazin-4-amine], the IC50 was 2030 nM at CDK12/CycK, 2.18 nM in experiment [1] and 4.02 nM in experiment [2].

With `Cc1ccnc2[nH]c(CNc3nc(N4CCOCC4)nc4c(C(C)C)cnn34)nc12` [Example 28, N-[(7-methyl-3H-imidazo[4,5-b]pyridin-2-yl)methyl]-2-(morpholin-4-yl)-8-(propan-2-yl)pyrazolo[1,5-a][1,3,5]triazin-4-amine], the values for the IC50 (at CDK12/CycK; in experiment [1]; in experiment [2]) were 3320 nM, 74.5 nM and 13.3 nM, respectively.

In the case of `CN(CC(C)(C)O)c1nc(NCc2nc3c(F)c(F)ccc3[nH]2)n2ncc(Cl)c2n1` [Example 359, 1-[(8-chloro-4-{[(4,5-difluoro-1H-benzimidazol-2-yl)methyl]amino}pyrazolo[1,5-a][1,3,5]triazin-2-yl)(methyl)amino]-2-methylpropan-2-ol], the figures for the IC50 (at CDK12/CycK; in experiment [1]; in experiment [2]) were 2090 nM, 15.2 nM and 3.28 nM, respectively.

For `FC(F)(F)c1ccc2[nH]c(CNc3nc(N4CCOCC4)nc4c(Br)cnn34)nc2c1` [Example 339, 8-bromo-2-(morpholin-4-yl)-N-{[5-(trifluoromethyl)-1H-benzimidazol-2-yl]methyl}pyrazolo[1,5-a][1,3,5]triazin-4-amine], the results for the IC50 (on CDK12/CycK; in experiment [1]; in experiment [2]) were 1550 nM, 7.45 nM and 7.85 nM, respectively.

With `FC(F)(F)c1ccc2[nH]c(CNc3nc(N4CC5CCC(C4)N5)nc4c(C5CC5)cnn34)nc2c1` [Example 327, 8-cyclopropyl-2-(3,8-diazabicyclo[3.2.1]octan-3-yl)-N-{[5-(trifluoromethyl)-1H-benzimidazol-2-yl]methyl}pyrazolo[1,5-a][1,3,5]triazin-4-amine], the IC50 on CDK12/CycK was found to be 2350 nM; in experiment [1] it was 2.27 nM; in experiment [2], 8.3 nM.

Regarding `Cc1cc2nc(CNc3nc(N4CC5CCC(C4)N5)nc4c(Br)cnn34)[nH]c2cc1C` [Example 353, 8-bromo-2-(3,8-diazabicyclo[3.2.1]octan-3-yl)-N-[(5,6-dimethyl-1H-benzimidazol-2-yl)methyl]pyrazolo[1,5-a][1,3,5]triazin-4-amine], the IC50 at CDK12/CycK turned out to be 2520 nM; in experiment [1], 1.81 nM; in experiment [2], 2.39 nM.

Consider `CN(CC(C)(C)O)c1nc(NCc2nc3c(F)cccc3[nH]2)n2ncc(Cl)c2n1` [Example 366, 1-[(8-chloro-4-{[(4-fluoro-1H-benzimidazol-2-yl)methyl]amino}pyrazolo[1,5-a][1,3,5]triazin-2-yl)(methyl)amino]-2-methylpropan-2-ol], for which the IC50 at CDK12/CycK worked out at 1810 nM; in experiment [1], 57.1 nM; in experiment [2], 27.1 nM.

`Fc1cc2nc(CNc3nc(N4CCOCC4)nc4c(Br)cnn34)[nH]c2cc1Cl` [Example 336, 8-bromo-N-[(6-chloro-5-fluoro-1H-benzimidazol-2-yl)methyl]-2-(morpholin-4-yl)pyrazolo[1,5-a][1,3,5]triazin-4-amine]: the IC50 was 789 nM at CDK12/CycK, 4.27 nM in experiment [1] and 8 nM in experiment [2].

In the case of `Brc1cnn2c(NCc3nc4ccccc4[nH]3)nc(N3CC4CCC3CO4)nc12` (stereo not drawn) [Example 352, N-[(1H-benzimidazol-2-yl)methyl]-8-bromo-2-(2-oxa-5-azabicyclo[2.2.2]octan-5-yl)pyrazolo[1,5-a][1,3,5]triazin-4-amine], the IC50 on CDK12/CycK worked out at 5250 nM; in experiment [1], 18.8 nM; in experiment [2], 4.93 nM.

Consider `CN1CCN(c2nc(NCc3nc4c(F)cccc4[nH]3)n3ncc(Cl)c3n2)CC1.O=CO` [Example 362, formic acid 8-chloro-N-[(4-fluoro-1H-benzimidazol-2-yl)methyl]-2-(4-methylpiperazin-1-yl)pyrazolo[1,5-a][1,3,5]triazin-4-amine], for which the IC50 at CDK12/CycK worked out at 13100 nM; in experiment [1] it was 33.5 nM; in experiment [2] it was 26.4 nM.

Regarding `Fc1cc2nc(CNc3nc(N4CCOCC4)nc4c(C(F)(F)F)cnn34)[nH]c2cc1F` [Example 333, N-[(5,6-difluoro-1H-benzimidazol-2-yl)methyl]-2-(morpholin-4-yl)-8-(trifluoromethyl)pyrazolo[1,5-a][1,3,5]triazin-4-amine], the values for the IC50 (at CDK12/CycK; in experiment [1]; in experiment [2]) were 142 nM, 3.78 nM and 1.8 nM, respectively.

Consider `Brc1cnn2c(NCc3nc4ccccc4[nH]3)nc(N3C[C@H]4CC[C@@H]3CO4)nc12` (single isomer, unassigned) [Example 383, N-[(1H-benzimidazol-2-yl)methyl]-8-bromo-2-{[1R or S-(1R*,4R*)]-2-oxa-5-azabicyclo[2.2.2]octan-5-yl}pyrazolo[1,5-a][1,3,5]triazin-4-amine], for which the IC50 on CDK12/CycK came out at 4970 nM; in experiment [1] it was 30 nM; in experiment [2], 4.01 nM.

For the compound `Fc1ccc(-c2nnc(CNc3nc(N4CCOCC4)nc4c(Br)cnn34)[nH]2)cc1` [Example 29, 8-bromo-N-{[5-(4-fluorophenyl)-4H-1,2,4-triazol-3-yl]methyl}-2-(morpholin-4-yl)pyrazolo[1,5-a][1,3,5]triazin-4-amine], the IC50 at CDK12/CycK worked out at 3670 nM; in experiment [1], 89.9 nM; in experiment [2] it was 21.2 nM.

In the case of `CN(CC(C)(C)O)c1nc(NCc2nc3cc(F)c(F)cc3[nH]2)n2ncc(C3CC3)c2n1` [Example 319, 1-[(8-cyclopropyl-4-{[(5,6-difluoro-1H-benzimidazol-2-yl)methyl]amino}pyrazolo[1,5-a][1,3,5]triazin-2-yl)(methyl)amino]-2-methylpropan-2-ol], the IC50 on CDK12/CycK came to 2380 nM; in experiment [1], 4.76 nM; in experiment [2], 9.97 nM.

`Cc1cc2nc(CNc3nc(N(C)CC(C)(C)O)nc4c(Br)cnn34)[nH]c2cc1C` [Example 343, 1-[(8-bromo-4-{[(5,6-dimethyl-1H-benzimidazol-2-yl)methyl]amino}pyrazolo[1,5-a][1,3,5]triazin-2-yl)(methyl)amino]-2-methylpropan-2-ol]: the IC50 came to 188 nM on CDK12/CycK, 2.84 nM in experiment [1] and 1.91 nM in experiment [2].

For the compound `Clc1cc2nc(CNc3nc(N4CC5CCC(C4)N5)nc4c(C5CC5)cnn34)[nH]c2cc1Cl` [Example 324, 8-cyclopropyl-2-(3,8-diazabicyclo[3.2.1]octan-3-yl)-N-[(5,6-dichloro-1H-benzimidazol-2-yl)methyl]pyrazolo[1,5-a][1,3,5]triazin-4-amine], the IC50 worked out at 859 nM at CDK12/CycK, 1.56 nM in experiment [1] and 8.86 nM in experiment [2].
